# Patent US20220106289A1, “NLRP3 INHIBITORS” (INFLAZOME LIMITED, priority 2018, published 2022)
# Where a name gives a salt, the structure may show the parent alone.
# Experiments:
# [1] = target: T1, NLRP3 (Homo sapiens, UniProt Q96P20); test: THP-1 cells pyroptosis assay (LPS + nigericin, resazurin read-out); type: cell-based; set-up: Seed THP-1 cells (25,000 cells/well) containing 1.0 μg/ml LPS; host or cells: THP-1 cells; conditions: NLRP3 inhibitory activity, 1 μg/ml LPS, 5 μM nigericin
# Experimental: The cells were routinely passaged and grown to confluency (˜10^6 cells/ml). On the day of the experiment, THP-1 cells were harvested and resuspended into RPMI medium (without FBS). The cells were then counted and viability (>90%) checked by Trypan blue (Sigma #T8154). […] To this diluted cell solution was added LPS (Sigma #L4524) to give a 1 μg/ml Final Assay Concentration (FAC). 40 μl of the final preparation was aliquoted into each well of a 96-well plate. The plate thus prepared was used for compound screening. The following method step-by-step assay was followed for compound screening. • 1. […] Incubate for 3 hrs at 37° C., 5% CO2 • 4. Add 5 μl nigericin (Sigma #N7143) (FAC 5 μM) to all wells • 5. Incubate for 1 hr at 37° C., 5% CO2 • 6. At the end of the incubation period, spin plates at 300×g for 3 mins and remove supernatant • 7. Then add 50 μl of resazurin (Sigma #R7017) (FAC 100 μM resazurin in RPMI medium without FBS) and incubate plates for a further 1-2 hrs at 37° C. and 5% CO2 • 8.
# [2] = target: T1, NLRP3; test: Human whole blood IL-1β release assay (LPS + nigericin, AlphaLisa); type: cell-based; set-up: Human whole blood in Li-heparin tubes was obtained from healthy donors; from tissue; host or cells: human whole blood from healthy donors; conditions: NLRP3 inhibitory activity, 1 μg/ml LPS, 10 μM nigericin, read-out: HWB IC50
# Experimental: For systemic delivery, the ability to inhibit NLRP3 when the compounds are present within the bloodstream is of great importance. For this reason, the NLRP3 inhibitory activity of a number of compounds in human whole blood was investigated in accordance with the following protocol. Human whole blood in Li-heparin tubes was obtained from healthy donors from a volunteer donor panel. • 1. […] Incubate for 3 hrs at 37° C., 5% CO2 • 4. Add 10 μl nigericin (Sigma #N7143) (10 μM FAC) to all wells • 5. Incubate for 1 hr at 37° C., 5% CO2 • 6. At the end of the incubation period, spin plates at 300×g for 5 mins to pellet cells and remove 20 μl of supernatant and add to 96-well v-bottom plates for IL-1β analysis (note: these plates containing the supernatants can be stored at -80° C. to be analysed at a later date) • 7. IL-1β was measured according to the manufacturer protocol (Perkin Elmer-AlphaLisa IL-1 Kit A[…]-5000) • 8.
# T1 sequence (Q96P20 whole entry): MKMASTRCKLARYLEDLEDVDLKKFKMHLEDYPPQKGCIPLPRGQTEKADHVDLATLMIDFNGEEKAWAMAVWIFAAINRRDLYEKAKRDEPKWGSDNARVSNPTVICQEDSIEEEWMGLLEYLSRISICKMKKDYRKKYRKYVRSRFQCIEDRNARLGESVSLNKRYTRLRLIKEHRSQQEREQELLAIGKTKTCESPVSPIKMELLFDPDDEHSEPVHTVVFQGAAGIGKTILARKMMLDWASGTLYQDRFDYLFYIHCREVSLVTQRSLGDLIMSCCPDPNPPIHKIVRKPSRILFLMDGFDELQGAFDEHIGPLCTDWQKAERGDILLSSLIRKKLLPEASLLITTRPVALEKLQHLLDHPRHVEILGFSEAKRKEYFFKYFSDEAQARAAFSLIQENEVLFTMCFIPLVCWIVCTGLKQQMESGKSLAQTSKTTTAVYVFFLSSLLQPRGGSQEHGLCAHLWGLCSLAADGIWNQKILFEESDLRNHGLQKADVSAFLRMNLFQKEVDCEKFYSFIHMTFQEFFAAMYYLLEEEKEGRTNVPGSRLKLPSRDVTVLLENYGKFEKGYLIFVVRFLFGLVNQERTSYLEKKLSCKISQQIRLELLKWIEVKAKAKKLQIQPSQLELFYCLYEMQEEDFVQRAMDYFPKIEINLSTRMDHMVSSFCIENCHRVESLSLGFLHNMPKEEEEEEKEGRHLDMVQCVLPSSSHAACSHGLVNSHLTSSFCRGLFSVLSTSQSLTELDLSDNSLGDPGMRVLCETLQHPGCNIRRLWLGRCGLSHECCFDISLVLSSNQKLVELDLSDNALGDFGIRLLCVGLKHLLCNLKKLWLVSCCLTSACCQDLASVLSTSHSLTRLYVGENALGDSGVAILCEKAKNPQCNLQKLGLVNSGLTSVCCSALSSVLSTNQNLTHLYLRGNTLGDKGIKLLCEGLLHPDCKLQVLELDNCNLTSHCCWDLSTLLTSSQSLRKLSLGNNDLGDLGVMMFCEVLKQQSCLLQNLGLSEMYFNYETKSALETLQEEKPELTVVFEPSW
Compound,IC50 [1] [nM],IC50 [2] [µM]
"NC/C(=C\F)COc1ccc(S(=O)(=O)NC(=O)Nc2c3c(cc4c2CCC4)CCC3)cc1 [Example 17, 4-((2-(Aminomethyl)-3-fluoroallyl)oxy)-N-((1,2,3,5,6,7-hexahydro-s-indacen-4-yl)carbamoyl)benzenesulfonamide, 2,2,2-trifluoroacetate salt]",250 to 500,1 to 5
"CN(C)CC1(n2ccc(S(=O)(=O)NC(=O)Nc3c4c(cc5c3CCC5)CCC4)n2)CCC1 [Example 60, 1-(1-((Dimethylamino)methyl)cyclobutyl)-N-((1,2,3,5,6,7-hexahydro-s-indacen-4-yl)carbamoyl)-1H-pyrazole-3-sulfonamide]",< 250,< 0.25
"COC(C)(C)c1cc(S(=O)(=O)NC(=O)Nc2c(C(C)C)cc(F)cc2C(C)C)nn1C [Example 82, N-((4-Fluoro-2,6-diisopropylphenyl)carbamoyl)-5-(2-methoxypropan-2-yl)-1-methyl-1H-pyrazole-3-sulfonamide]",250 to 500,0.5 to 1
"CN(C)Cc1ccc(S(=O)(=O)NC(=O)Nc2c3c(cc4c2CCC4)CCC3)cc1 [Example 66, 4-((Dimethylamino)methyl)-N-((1,2,3,5,6,7-hexahydro-s-indacen-4-yl)carbamoyl)benzenesulfonamide, sodium salt]",< 250,0.25 to 0.5
"O=C(Nc1c2c(cc3c1CCC3)CCC2)NS(=O)(=O)c1cc[nH]n1 [Example 13, N-((1,2,3,5,6,7-Hexahydro-s-indacen-4-yl)carbamoyl)-1H-pyrazole-3-sulfonamide, potassium salt]",1000 to 5000,> 10
"COc1cc(-c2cc(F)cc(C(C)C)c2CCC(=O)NS(=O)(=O)c2ccc(C(C)(C)O)cc2C)ccn1 [Example 3, 3-(4-Fluoro-2-isopropyl-6-(2-methoxypyridin-4-yl)phenyl)-N-((4-(2-hydroxypropan-2-yl)-2-methylphenyl)sulfonyl)propanamide]",1000 to 5000,> 10
"[2H]C([2H])([2H])N(CCn1ccc(S(=O)(=O)NC(=O)Nc2c3c(cc4c2CCC4)CCC3)n1)C([2H])([2H])[2H] [Example 12, 1-(2-(Bis(methyl-d3)amino)ethyl)-N-((1,2,3,5,6,7-hexahydro-s-indacen-4-yl)carbamoyl)-1H-pyrazole-3-sulfonamide, potassium salt]",< 250,0.5 to 1
"CC(C)(CN1CCC1)n1ccc(S(=O)(=O)NC(=O)Nc2c3c(cc4c2CCC4)CCC3)n1 [Example 56, 1-(1-(Azetidin-1-yl)-2-methylpropan-2-yl)-N-((1,2,3,5,6,7-hexahydro-s-indacen-4-yl)carbamoyl)-1H-pyrazole-3-sulfonamide]",< 250,0.25 to 0.5
"CC(C)c1cc(F)cc2c1C(C(=O)NS(=O)(=O)c1ccn(C3CC3)n1)CCC2(C)C (stereo not shown) [Example 6, N-((1-Cyclopropyl-1H-pyrazol-3-yl)sulfonyl)-6-fluoro-8-isopropyl-4,4-dimethyl-1,2,3,4-tetrahydronaphthalene-1-carboxamide]",1000 to 5000,5 to 10
"CC(C)c1cc(Cl)c2c(c1NC(=O)NS(=O)(=O)c1ccn(C(C)C)n1)CCC2 [Example 34, N-((7-Chloro-5-isopropyl-2,3-dihydro-1H-inden-4-yl)carbamoyl)-1-isopropyl-1H-pyrazole-3-sulfonamide]",250 to 500,5 to 10
"O=C(Nc1c2c(cc3c1CCC3)CCC2)NS(=O)(=O)c1ccn(CC(F)(F)F)n1 [Example 42, N-((1,2,3,5,6,7-Hexahydro-s-indacen-4-yl)carbamoyl)-1-(2,2,2-trifluoroethyl)-1H-pyrazole-3-sulfonamide]",< 250,1 to 5
"O=C(Nc1c2c(cc3c1CCC3)C=CC2)NS(=O)(=O)c1cc[nH]n1 [Example 14, N-((1,2,3,5-Tetrahydro-s-indacen-4-yl)carbamoyl)-1H-pyrazole-3-sulfonamide, potassium salt]",500 to 1000,5 to 10
"CC(C)n1ccc(S(=O)(=O)NC(=O)Nc2c3c(cc4c2CCC4O)CCC3)n1 (stereo not shown) [Example 21, N-((1-Hydroxy-1,2,3,5,6,7-hexahydro-s-indacen-4-yl)carbamoyl)-1-isopropyl-1H-pyrazole-3-sulfonamide]",5000 to 10000,5 to 10
"CC(O)c1cc(S(=O)(=O)NC(=O)Nc2c3c(cc4c2CCC4)CCC3)nn1C(C)C (stereo not shown) [Example 54, N-((1,2,3,5,6,7-Hexahydro-s-indacen-4-yl)carbamoyl)-5-(1-hydroxyethyl)-1-isopropyl-1H-pyrazole-3-sulfonamide]",< 250,0.5 to 1
"CC(C)c1cc(C#N)cc(C(C)C)c1NC(=O)NS(=O)(=O)c1cc(C(C)(C)O)n(C)n1 [Example 71, N-((4-Cyano-2,6-diisopropylphenyl)carbamoyl)-5-(2-hydroxypropan-2-yl)-1-methyl-1H-pyrazole-3-sulfonamide]",500 to 1000,1 to 5
"CC(C)c1cc(C#N)cc(C(C)C)c1NC(=O)NS(=O)(=O)c1ccn(C(C)C)n1 [Example 72, N-((4-Cyano-2,6-diisopropylphenyl)carbamoyl)-1-isopropyl-1H-pyrazole-3-sulfonamide]",1000 to 5000,5 to 10
"Cn1nc(S(=O)(=O)NC(=O)Nc2c3c(cc4c2CCC4)CCC3)cc1CO [Example 84, N-((1,2,3,5,6,7-Hexahydro-s-indacen-4-yl)carbamoyl)-5-(hydroxymethyl)-1-methyl-1H-pyrazole-3-sulfonamide]",250 to 500,0.5 to 1
"O=C(Nc1c2c(cc3c1CCC3)CCC2)NS(=O)(=O)c1ccn(CC(F)F)n1 [Example 63, 1-(2,2-Difluoroethyl)-N-((1,2,3,5,6,7-hexahydro-s-indacen-4-yl)carbamoyl)-1H-pyrazole-3-sulfonamide, sodium salt]",< 250,1 to 5
"C#CCCC1(CCn2ccc(S(=O)(=O)NC(=O)Nc3c4c(cc5c3CCC5)CCC4)n2)N=N1 [Example 16, 1-(2-(3-(But-3-yn-1-yl)-3H-diazirin-3-yl)ethyl)-N-((1,2,3,5,6,7-hexahydro-s-indacen-4-yl)carbamoyl)-1H-pyrazole-3-sulfonamide, potassium salt]",< 250,5 to 10
"CC(C)c1cc(F)cc(C(C)C)c1CC(=O)NS(=O)(=O)c1ccc(CN(C)C)cc1 [Example 33, N-((4-((Dimethylamino)methyl)phenyl)sulfonyl)-2-(4-fluoro-2,6-diisopropylphenyl)acetamide, 2,2,2-trifluoroacetate salt]",1000 to 5000,1 to 5
"CC(C)n1nc(S(=O)(=O)NC(=O)Nc2c3c(cc4c2CCC4)CCC3)cc1F [Example 62, 5-Fluoro-N-((1,2,3,5,6,7-hexahydro-s-indacen-4-yl)carbamoyl)-1-isopropyl-1H-pyrazole-3-sulfonamide, sodium salt]",< 250,> 10
"CC(C)c1cc(Cl)cc(C(C)C)c1NC(=O)NS(=O)(=O)c1cnn(CC(F)(F)F)c1 [Example 40, N-((4-Chloro-2,6-diisopropylphenyl)carbamoyl)-1-(2,2,2-trifluoroethyl)-1H-pyrazole-4-sulfonamide]",250 to 500,1 to 5
"Cc1cc(C(C)(C)O)ccc1S(=O)(=O)NC(=O)Cc1c(C(C)C)cc(F)cc1C(C)C [Example 2, 2-(4-Fluoro-2,6-diisopropylphenyl)-N-((4-(2-hydroxypropan-2-yl)-2-methylphenyl)sulfonyl)acetamide, potassium salt]",250 to 500,> 10
"CC(C)n1ccc(S(=O)(=O)NC(=O)Nc2cc(Br)ccc2Sc2nnnn2C)n1 [Example 28, N-((5-Bromo-2-((1-methyl-1H-tetrazol-5-yl)thio)phenyl)carbamoyl)-1-isopropyl-1H-pyrazole-3-sulfonamide]",1000 to 5000,5 to 10
"CC(C)c1cc(F)cc(C(C)C)c1NC(=O)NS(=O)(=O)c1ccn(C(C)C)n1 [Example 77, N-((4-Fluoro-2,6-diisopropylphenyl)carbamoyl)-1-isopropyl-1H-pyrazole-3-sulfonamide, sodium salt]",1000 to 5000,5 to 10
"O=C(Nc1c2c(cc3c1CCO3)CCC2)NS(=O)(=O)c1ccn(C2CC2)n1 [Example 67, 1-Cyclopropyl-N-((3,5,6,7-tetrahydro-2H-indeno[5,6-b]furan-4-yl)carbamoyl)-1H-pyrazole-3-sulfonamide]",< 250,1 to 5
